{
  "source": "patent US9488664B2",
  "about": "“Diagnostic agent for tumor” (SBI Pharmaceuticals Co., Ltd., priority 2012, dated 2016)",
  "assay": "Side effects (stomach discomfort, nausea) in individuals given 5-ALA",
  "assay_type": "in vivo, human",
  "protocol": "A total of eight individuals including seven healthy volunteers in whom no particular abnormality was found by health examination and the like and one volunteer with a malignant tumor, who was given a diagnosis of cancer by a doctor, were studied. The average body weight of the volunteers was 50 kg. The volunteers were instructed to ingest one capsule encapsulating 100 mg of 5-ALA before sleep and collect the first urine at the time of wake-up. Also, they were instructed to ingest, on another day, three capsules, each encapsulating 100 mg of 5-ALA, before sleep and collect the first urine at the time of wake-up.\nFrom the above results, it was shown that administration at a dose of 300 mg can distinguish between not only the presence and absence of a tumor, but also a malignant tumor and a benign tumor. Also, it was shown that a malignant tumor can be detected by administering 100 mg of 5-ALA.\nA total of 10 individuals including five healthy volunteers in whom no particular abnormality was found by health examination and the like and five volunteers with a malignant tumor, who were given a diagnosis of cancer by a doctor, ingested 1 g of 5-ALA. […]",
  "data": [
    {"smiles": "NCC(=O)CCC(=O)O", "note": "[5-ALA, 5-aminolevulinic acid]", "values": [
      {"measurement": "stomach discomfort and nausea", "setting": "100 mg and 300 mg 5-ALA oral, eight individuals", "value": "neither stomach discomfort nor nausea was observed"},
      {"measurement": "stomach discomfort and nausea", "setting": "1 g 5-ALA ingested, 10 individuals", "value": "some of the volunteers developed stomach discomfort and nausea"}
    ]}
  ]
}
